Measured values as given in patent publication US6642222B2, “Pyrano, piperidino, and thiopyrano compounds and methods of use” (Abbott Laboratories, priority 1998, dated 2003).
Where a name gives a salt, the structure may show the parent alone.

Key:
Landrace Pig Bladder = experiment: Functional potassium channel opening activity in isolated bladder strips (field-stimulated twitch); conditions: for Index: ED50 for P1075 divided by ED50 for the test agonist, averaged over tissues; for Emax / EC50: Sus scrofa; for EC50: read-out: pD2 (converted)
Experimental: Compounds were evaluated for functional potassium channel opening activity using tissue strips obtained from Landrace pig bladders. Landrace pig bladders were obtained from female Landrace pigs of 9-30 kg. Landrace pigs were euthanized with an intraperitoneal injection of pentobarbital solution, Somlethal®, J. A. Webster Inc. Sterling Mass. The entire bladder was removed and immediately placed into Krebs Ringer bicarbonate solution (composition, mM: NaCl, 120; […] Dextrose, 4.7; […] Propranolol (0.004 mM) was included in all of the assays to block β-adrenoceptors. The trigonal and dome portions were […], Strips 3-5 […] (mm) wide and 20 mm long were prepared from the remaining tissue cut in a circular fashion. The mucosal layer was removed. One end was fixed to a stationary glass rod and the other to a Grass FT03 transducer at a basal preload of 1.0 g. Two parallel platinum electrodes were included in the stationary glass trod to provide field stimulation of 0.05 Hz, 0.5 milli-seconds at 20 volts. […] Tissues were allowed to equilibrate for at least 60 minutes and primed with 80 mM KCl. A control concentration response curve (cumulative) was generated for each tissue using the potassium channel opener […] as the control agonist. […] After a 60 minute rinsing period, a concentration response curve (cumulative) was generated for the test agonist in the same fashion as that used for the control agonist […]. The maximal efficacy of each compounds (expressed as % relative to […]) is reported. The amount of agent necessary to cause 50% of the agent's maximal response (ED50) was calculated using “ALLFIT” (DeLean et al., Am. J. […] Agonist potencies were also expressed as an index relative to […]. The index was calculated by dividing the ED50 for […] by the ED50 for the test agonist in a given tissue. Each tissue was used for only one test agonist, and the indices obtained from each tissue were averaged to provide an average index of potency.

[1] = test system: Guinea-Pig Bladder (GPB) Cells; experiment: Membrane Hyperpolarization (MHP) assay, DiBAC(4)3 / FLIPR; conditions: for EC50: membrane hyperpolarization, GPB cells; for Emax: read-out: Maximal Response (% P1075), maximal steady-state hyperpolarization, normalized to 10 μM P1075 (100%); for Maximal Response (% P1075): maximal steady-state hyperpolarization, normalized to 10 μM P1075 (100%)
[2] = maximal efficacy relative to P1075, field stimulated bladder strips

| SMILES | EC50 ([1]; Cavia porcellus) [nM] | Emax ([1]; Cavia porcellus) [%] | Maximal Response (% P1075) [1] [% P1075] | EC50 [1] [nM] | also measured |
| --- | --- | --- | --- | --- | --- |
| O=C1COCC2=C1C(c1ccc(F)c(I)c1)C1=C(COCC1=O)N2 [Example 30, 5-(4-fluoro-3-iodophenyl)-5,10-dihydro-1H,3H-dipyrano[3,4-b:4,3-e]pyridine-4,6(7H,9H)-dione] | – | – | 81 | 5 | Index (Landrace Pig Bladder): 1.1; Efficacy (% P1075) (Landrace Pig Bladder; [2]): 100 % P1075; pD2 (Landrace Pig Bladder; negative logarithm of ED50): 7.6 |
| N#Cc1cccc(C2C3=C(COCC3=O)NC3=C2S(=O)(=O)CC3)c1 (single isomer, unassigned; (-)) [Example 16, (−) 9-(3-cyanophenyl)-2,3,5,9-tetrahydro-4H-pyrano [3,4-b]thieno[2,3-e]pyridin-8(7H)-one 1,1-dioxide] | – | – | 57 | 8800 | – |
| O=C1COCC2=C1C(c1ccc(F)c(Cl)c1)C1=C(CCNC1=O)N2 (centres unmarked) [Example 44, 10-(3-chloro-4-fluorophenyl)-3,4,6,10-tetrahydro-2H-pyrano [3,4-b][1,6]naphthyridine-1,9(5H,8H)-dione] | – | 96 | – | – | – |
| CCC(C)(C)N=C(NC#N)Nc1cccnc1 [Example P1075, reference compound] | – | – | – | – | stimulated twitch (Landrace Pig Bladder; control agonist, 10^−9 to 10^−5 M, dose dependent): completely eliminated the stimulated twitch |
| O=C1COCC2=C1C(c1ccc(Cl)c(C(F)(F)F)c1)C1=C(COCC1=O)N2 [Example 56, 5-[4-chloro-3-(trifluoromethyl)phenyl]-5,10-dihydro-1H, 3H-dipyrano[3,4-b:4,3-e]pyridine-4,6(7H,9H)-dione] | – | – | 96 | 15 | – |
| O=C1COCC2=C1C(c1ccc(Cl)c([N+](=O)[O-])c1)C1=C(CCS1(=O)=O)N2 (centres unmarked) [Example 17, 9-(4-chloro-3-nitrophenyl)-2,3,5,9-tetrahydro-4H-pyrano[3,4-b]thieno[2,3-e]pyridin-8(7H)-one 1,1-dioxide] | – | 93 | – | 4.2 | – |
| N#Cc1cccc(C2C3=C(COCC3=O)NC3=C2S(=O)(=O)CC3)c1 (centres unmarked) [Example 14, 9-(3-cyanophenyl)-2,3,5,9-tetrahydro-4H-pyrano[3,4-b]thieno[2,3-e]pyridin-8(7H)-one 1,1-dioxide] | – | – | 99 | 400 | – |
| O=C1COCC2=C1C(c1ccc(C(F)(F)F)c(I)c1)C1=C(COCC1=O)N2 [Example 62, 5-[3-iodo-4-(trifluoromethyl)phenyl]-5,10-dihydro-1H,3H-dipyrano[3,4-b:4,3-e]pyridine-4,6(7H,9H)-dione] | – | – | 77 | 58 | – |
| Cc1ccc([C@H]2C3=C(COCC3=O)NC3=C2C(=O)OC3)cc1Br (single isomer, unassigned) [Example 81] | – | – | – | – | Index (Landrace Pig Bladder): 0.23; Emax (Landrace Pig Bladder; [2]): 93%; EC50 (Landrace Pig Bladder; negative logarithm of ED50): 398 nM |
| Cc1ccc(C2C3=C(COCC3=O)NC3=C2C(=O)OC3)cc1I (single isomer, unassigned) [Example 82, 9-(3-iodo-4-methylphenyl)-5,9-dihydro-3H-furo [3,4-b]pyrano[4,3-e]pyridine-1,8(4H,7H)-dione] | – | – | – | – | Index (Landrace Pig Bladder): 1.4; Emax (Landrace Pig Bladder; [2]): 98%; EC50 (Landrace Pig Bladder; negative logarithm of ED50): 31.6 nM |
| O=C1COCC2=C1C(c1ccc(F)c(Br)c1)C1=C(CCCS1(=O)=O)N2 (centres unmarked) [Example 21, 10-(3-bromo-4-fluorophenyl)-3,4,6,10-tetrahadro-2H,5H-pyrano[3,4-b]thioyrano[2,3-e]pyridin-9(8H)-one 1,1-dioxide] | – | – | 79 | 66 | – |
| O=C1CCC2=C1C(c1ccc(F)c(Br)c1)C1=C(CSCC1=O)N2 (centres unmarked) [Example 51, 5-(3-bromo-4-fluorophenol)-5,7,8,9-tetrahydrocyclopenta [b]thiopyrano[4,3-e]pyridine-4,6(1H,3H)-dione] | – | – | 88 | 120 | – |
| O=C1COCC2=C1C(c1ccc(Br)c(Cl)c1)C1=C(COCC1=O)N2 [Example 60, 5-(4-bromo-3-chlorophenyl)-5,10-dihydro-1H,3H-dipyrano[3,4-b:4,3-e]pyridine-4,6(7H,9H)-dione] | – | – | 88 | 23 | – |
| O=C1COCC2=C1C(c1ccc(Cl)c(Br)c1)C1=C(COCC1=O)N2 [Example 61, 5-(3-bromo-4-chlorophenyl)-5,10-dihydro-1H,3H-dipyrano[3,4-b:4,3-e]pyridine-4,6(7H,9H)-dione] | – | – | 97 | 6.3 | – |
| O=C1CNCC2=C1C(c1ccc(F)c(Br)c1)C1=C(CNCC1=O)N2 [Example 4, 5-(3-bromo-4-fluorophenyl)-2,3,5,8,9,10-hexahydropyrido [3,4-b][1,7]naphthyridine-4,6(1H,7H)-dione Dihydrochloride] | – | 21 | – | – | – |

The next lines start with results.

| EC50 ([1]; Cavia porcellus) [nM] | SMILES | Emax ([1]; Cavia porcellus) [%] | Maximal Response (% P1075) [1] [% P1075] | EC50 [1] [nM] | also measured |
| --- | --- | --- | --- | --- | --- |
| 380 | O=C1COCC2=C1C(c1ccc(F)c(Br)c1)C1=C(CCNC1=O)N2 (centres unmarked) [Example 52, 10-(3-bromo-4-fluorophenyl)-3,4,6,10-tetrahydro-2H-pyrano[3,4-b][1,6]naphthyridine-1,9(5H,8H)-dione] | 105 | – | – | Index (Landrace Pig Bladder): 0.069; Emax (Landrace Pig Bladder; [2]): 99%; EC50 (Landrace Pig Bladder; negative logarithm of ED50): 5010 nM |
| 200 | O=C1COCC2=C1C(c1ccc(Cl)c(Cl)c1)C1=C(CCNC1=O)N2 (centres unmarked) [Example 45, 10-(3,4-dichlorophenyl)-3,4,6,10-tetrahydro-2H-pyrano [3,4-b][1,6]naphthyridine-1,9(5H,8H)-dione] | 85 | – | – | – |
| 2300 | O=C1COCC2=C1C(c1csc([N+](=O)[O-])c1)C1=C(CCNC1=O)N2 (centres unmarked) [Example 49, 10-(5-nitro-3-thienyl)-3,4,6,10-tetrahydro-2H-pyrano [3,4-b][1,6]naphthyridine-1,9(5H,8H)-dione] | 85 | – | – | – |
| 9.8 | O=C1COCC2=C1C(c1ccc(F)c(Br)c1)C1=C(COC1=O)N2 (centres unmarked) [Example 25, 9-(3-bromo-4-fluorophenyl)-5,9-dihydro-3H-furo [3,4-b]pyrano[4,3-e]pyridine-1,8(4H,7H)-dione] | 106 | – | – | – |
| 40 | O=C1CCC2=C1C(c1ccc(F)c(Br)c1)C1=C(COCC1=O)N2 (centres unmarked) [Example 23, 5-(3-bromo-4-fluorophenyl)-5,7,8,9-tetrahydrocyclopenta [b]pyrano[4,3-e]pyridine-4,6(1H,3H)-dione] | 82 | – | – | – |
| 490 | O=C1COCC2=C1C(c1ccc(Cl)c([N+](=O)[O-])c1)C1=C(CCNC1=O)N2 (centres unmarked) [Example 47, 10-(4-chloro-3-nitrophenyl)-3,4,6,10-tetrahydro-2H-pyrano[3,4-b][1,6]naphthyridine-1,9(5H,8H)-dione] | 91 | – | – | – |
| 340 | O=C1COCC2=C1C(c1ccc(Cl)c(C(F)(F)F)c1)C1=C(CCNC1=O)N2 (centres unmarked) [Example 46, 10-[4-chloro-3-(trifluoromethyl)phenyl]-3,4,6,10-tetrahydro-2H-pyrano[3,4-b][1,6]naphthyridine-1,9(5H,8H)-dione] | 83 | – | – | – |
| 13 | CN1CC2=C(C1=O)C(c1ccc(F)c(Br)c1)C1=C(COCC1=O)N2 (centres unmarked) [Example 26, 9-(3-bromo-4-fluorophenyl)-2-methyl-2,3,5,9-tetrahydropyrano[3,4-b]pyrrolo[3,4-e]pyridine-1,8(4H,7H)-dione] | 90 | – | – | – |
| 84 | O=C1COCC2=C1C(c1ccc(Br)c(Br)c1)C1=C(CCNC1=O)N2 (centres unmarked) [Example 48, 10-(3,4-dibromophenyl)-3,4,6,10-tetrahydro-2H-pyrano[3,4-b][1,6]naphthyridine-1,9(5H,8H)-dione] | 91 | – | – | – |
